Laboratory results reported in ChEMBL document CHEMBL3046850, “In vivo antifilarial activity of some cyclic and acylic alcohols” (2011).
Calls of active or inactive are those of the source. No cut-off for these calls is given here.

Tests used:
Acanthocheilonema viteae [1] = assay: Antifilarial activity against Acanthocheilonema viteae infected Mastomys coucha assessed as microfilariacidal activity at 50 mg/kg, ip for 5 days relative to control; type: functional
Acanthocheilonema viteae [2] = assay: Antifilarial activity against Acanthocheilonema viteae infected Mastomys coucha assessed as sterilization of female worms at 50 mg/kg, ip for 5 days relative to control; type: functional, organism-based; set-up: dose 50 mg/kg
Acanthocheilonema viteae [3] = assay: Antifilarial activity against Acanthocheilonema viteae infected Mastomys coucha assessed as macrofilariacidal activity at 50 mg/kg, ip for 5 days relative to control; type: functional
Acanthocheilonema viteae [4] = assay: Antifilarial activity against Acanthocheilonema viteae infected Mastomys coucha assessed as macrofilariacidal activity at 200 mg/kg, ip for 5 days relative to control; type: functional; conditions: route intraperitoneal
Acanthocheilonema viteae [5] = assay: Antifilarial activity against Acanthocheilonema viteae infected Mastomys coucha assessed as sterilization of female worms at 100 mg/kg, po for 5 days relative to control; type: functional

SMILES | Activity (Acanthocheilonema viteae [1]) | Activity (Acanthocheilonema viteae [2]) | Activity (Acanthocheilonema viteae [3]) | Activity (Acanthocheilonema viteae [4]) [%] | Activity (Acanthocheilonema viteae [3]; route intraperitoneal) [%] | Activity (Acanthocheilonema viteae [1]; route intraperitoneal) [%] | Activity (Acanthocheilonema viteae [5]) [%]
CC(=O)OC(C)N1CCCCC1C (stereo not given) | inactive | inactive | inactive | – | – | – | –
CC(O)N1CCC(Cc2ccccc2)CC1 (stereo not given) | inactive | inactive | inactive | – | – | – | –
CC(=O)OC1CCCCC1N1CCCCC1 (stereo not given) | inactive | inactive | inactive | – | – | – | –
CC(=O)OC(C)N1CCC(Cc2ccccc2)CC1 (stereo not given) | inactive | inactive | – | 83.4 | – | – | –
OC1CCCCC1N1CCCCC1 (stereo not given) | inactive | inactive | – | – | 88.9 | – | –
CC(=O)OC1CCCCC1N1CCN(C)CC1 (stereo not given) | inactive | inactive | inactive | – | – | – | –
CC(=O)OC1CCCCC1N1CCOCC1 (stereo not given) | inactive | inactive | inactive | – | – | – | –
CN1CCN(C2CCCCC2O)CC1 (stereo not given) | inactive | inactive | – | – | – | – | –
CC(=O)OC1CCCCC1Nc1ccccc1 (stereo not given) | inactive | inactive | inactive | – | – | – | –
OC1CCCCC1N1CCOCC1 (stereo not given) | inactive | inactive | inactive | – | – | – | –
CC(=O)OC1CCCCC1N1CCC(Cc2ccccc2)CC1 (stereo not given) | inactive | inactive | inactive | – | – | – | –
CC(=O)OC(C)Nc1ccco1 (stereo not given) | inactive | inactive | inactive | – | – | – | –
CCN(CC)C(=O)N1CCN(C)CC1 [DIETHYLCARBAMAZINE] | – | inactive | inactive | – | – | 90 | –
OC1CCCCC1Nc1ccccc1 (stereo not given) | inactive | inactive | inactive | – | – | – | –
CC(O)Nc1ccco1 (stereo not given) | inactive | – | – | 81.3 | – | – | 82
CC(O)N1CCCCC1C (stereo not given) | inactive | inactive | inactive | – | – | – | –
OC1CCCCC1N1CCC(Cc2ccccc2)CC1 (stereo not given) | inactive | inactive | inactive | – | – | – | –
